# Experimental data: publication PMC5321741, “Arylmethylamino steroids as antiparasitic agents” (Nature Communications, 2017)
# Values joined by “and” are separate entries in the source; they are usually repeats but may differ in a detail not shown here. Equal entries are not always repeated. Structures can show the parent of a compound that is named as a salt. Where two headings read alike, the source gives them in different places.
# Experiments:
# K-562 = test: antiproliferative activity on K-562 cells; type: cell-based; settings: Homo sapiens, K562, 72 h
# Procedure: (§1) Compounds were tested for their antiproliferative activity on HUVEC and K-562 cells and for cytotoxicity on HeLa cells using standard protocols. K-562 (DSM ACC 10), HUVEC (ATCC CRL-1730), and HeLa (DSM ACC 57) cells were cultured as described previously. To assay the antiproliferative and cytotoxic effect, procedures were carried out as described before. In brief, for each experiment with K-562 and HeLa ∼10,000 cells were seeded per well of the 96-well microplates. For the cytotoxicity assay, the HeLa cells were preincubated for 48 h without the test substances. Cells were incubated for 72 h at 37 °C in a humidified atmosphere and 5% CO2. Suspension cultures of K-562 in microplates were analysed by an electronic cell analyzer system CASY 1 (SCHÄRFE, Reutlingen, Germany). The monolayer of the HUVEC and HeLa cells were fixed by glutaraldehyde (MERCK) and stained with a 0.05% solution of methylene blue (SERVA). After gently washing, the stain was eluted by 0.2 ml of 0.33 N HCl in the wells. The optical densities were measured at 660 nm in a microplate reader. The calculations of the different values of GI50 and CC50 were performed with the software Magellan (TECAN).
# haem = test: ESI-MS collision-induced dissociation of haem adducts; type: binding; settings: 50 µM haem and 50 µM substrate
# Procedure: Compound Molar Adduct DV50 Bottom Dissociation mass [Haem+S] (V) plateau Constant
# Supplementary Table 7. ESI-MS-CID data (m/z, calculated DV50 = dissociation voltage at 50% and % bottom plateau) of the [haematin-drug]+ adducts and dissociation constants (KD, µM) of the haematin-drug complexes measured with absorption spectrophotometric titrations.
# Conditions: 50 µM haem and 50 µM substrate in H2O/CH3CN (5/95) + 0.1% formic acid.
# Stability responses of the haem substrate adduct were obtained via ESI-CID experiments.
# Positive mode; fragmentor voltage from 20 V to 400 V with 20 V increments. […]
# - 41/120 g), and complete dissolution was achieved using an ultrasonic bath. All solutions were protected from daylight to avoid any photochemical degradation. All the physiochemical measurements were carried out at 25.0(2) °C. […]
# Electrospray mass spectrometric measurements stopping point
# Electrospray mass spectra of the haem complexes were obtained with an Agilent Technologies 6120 quadrupole equipped with an electrospray (ESI) interface. For
# [1] = cytotoxicity on HeLa cells; type: cell-based; settings: human, HeLa cells
# Procedure: as §1
# [2] = system: P. falciparum (strain 3D7); test: 72 h 3H-hypoxanthine incorporation assay, asexual blood stages; type: cell-based, Plasmodium falciparum; settings: Plasmodium falciparum
# HUVEC = test: antiproliferative activity on HUVEC cells; type: cell-based; settings: Homo sapiens, HUVEC, 72 h
# Procedure: as §1
# P. falciparum NF54 = test: IC50 speed assay; type: cell-based, Plasmodium falciparum; settings: for IC50: Plasmodium falciparum, mean±s.d., three biological replicates
# Procedure: To assess the rapidity of growth inhibition induced by the steroid compounds, the so-called IC50 speed assay[16] was conducted for compound 1o on P. falciparum NF54 (Fig. 2a,b).
# [3] = system: adult Schistosoma mansoni; test: schistosome in vitro culture with inhibitor treatment; type: cell-based
# [4] = system: P. berghei GFP ANKA malaria strain; test: P. berghei mouse model (Peter's test); type: in vivo, Plasmodium berghei in NMRI mice; settings: for % activity (reduction of parasitaemia) / % of control / Parasitized RBC over 100, Average / Parasitized RBC over 100, individual mice M1-M3: day 4
# Procedure: The animal experiments described here were performed at the Swiss Tropical and Public Health Institute (Swiss TPH, Basel, Switzerland), they were approved by the Swiss Cantonal Authorities (‘Kantonales Veterinäramt Basel Stadt') adhering to local and national regulations of laboratory animal welfare in Switzerland. The best compounds were tested in the murine P. berghei model essentially as described. The infection was initiated at day 0 with the P. berghei GFP ANKA malaria strain (donation from AP Waters and CJ Janse, Leiden University). From donor mice (female NMRI mice, 18–20 grams (about 3 weeks) from Charles River Germany) with ∼30% parasitaemia, heparinized blood was taken and diluted in physiological saline to 10^8 parasitized erythrocytes/ml. An aliquot (0.2 ml) of this suspension was injected intravenously into experimental and control groups of mice (female NMRI mice, 18–20 grams (about 3 weeks) from Charles River Germany). Usually, in untreated control mice parasitaemia rose regularly to ∼30% by day 3 post-infection. Control mice died between days 6 and 7 post infection. In the experiments described here, however, control animals (n=5) were killed on day 4 post infection for ethical reasons.
# The steroid compounds were prepared at an appropriate concentration as a solution/suspension in Tween 80/alcohol (7:3, Tween 80 and absolute ethanol, respectively), followed by a 10x dilution in water. […] The route of administration was i.p., p.o., s.c. in a volume of 10 ml kg^−1.
# The degree of infection (parasitaemia expressed in % of infected erythrocytes) was determined by FACS analysis on day 4 (96 h post infection). The difference of the mean infection rate of the control group (=100%) to the test group was calculated and expressed as a percent reduction. For example, activity determination with a mean of 2% parasitaemia in treated mice and a mean of 40% parasitaemia in the control animals is calculated as follows: (40−2%)/40% × 100=95% activity. The survival time in days was recorded up to 30 days after infection. A compound was considered curative if the animal survived to day 30 after infection with no detectable parasites (confirmed by light microscopy).
# [5] = 3D7, 72 h 3H-hypoxanthine incorporation, asexual blood stages, read-out: Antiplasmodial activity IC50 Pf (3D7)
# [6] = NF54, read-out: IC50 24 h, 24 h compound incubation
# [7] = NF54, 48 h compound incubation, read-out: IC50 48 h
# [8] = NF54, 72 h compound incubation, read-out: IC50 72 h
smiles,measurement,setting,value
COc1ccc2c(c1)CCC1C2CC[C@@]2(C)C1CC[C@@H]2N(CCCn1ccnc1)CCc1ccccn1 (stereo partly shown) [STS 948],GI50,K-562,6.6 µM
same,DV50 (dissociation voltage at 50%) of haem adduct,"haem; ESI-CID, 20 V to 400 V",367 V
same,Bottom plateau (adduct remaining at 400 V),haem; fragmentor voltage 400 V,36%
same,CC50 at 72 h,[1],18.3 µM
same,IC50,[2]; [5],0.675 µM
same,GI50,HUVEC,7.2 µM
Oc1ccccc1CNC1CCCCCCC1 (as salt: perchlorate) [17c],melting point,,136 to 138.5 °C
CCc1nc(N)nc(N)c1-c1ccc(Cl)cc1 [Pyrimethamine],"speed of action (IC50 shift across 24, 48, 72 h)",P. falciparum NF54,slow-acting compound
same,IC50,P. falciparum NF54; [6],0.22 ± 0.061 µM
same,IC50,P. falciparum NF54; [7],0.0304 ± 0.0076 µM
same,IC50,P. falciparum NF54; [8],0.0152 ± 0.0016 µM
Oc1ccccc1CNC1CCCC1 (as salt: perchlorate) [15c],melting point,,168 to 169 °C
Oc1ccccc1CNc1ccccc1 (as salt: perchlorate) [19c],melting point,,183 to 186 °C
Oc1ccccc1CNc1ccc2ccc3cccc4ccc1c2c34 [20c],melting point,,160 to 163 °C
same,IC50,"[2]; 3D7, non-steroid-derived analogs, read-out: IC50 on P. falciparum 3D7 asexual blood stages",5.6 µM
COc1ccc2c(c1)CCC1C2CC[C@@]2(C)C1CC[C@H]2NCc1ccccc1O (stereo partly shown) [1c],morphological effects (confocal laser scanning microscopy),"[3]; 5 μM, 6–13 days",Aggregate-like degradation products of the gastrodermis occurred within the gut lumen
same,time to death of worms,[3]; 10 µM,6 days
same,time to death of worms,[3]; 20 µM,2 days
same,starting concentration with negative influence on worm physiology,"[3]; pairing stability, egg production, survival, bright-field microscopy",1 μM
same,GI50,K-562,5.9 µM
same,CC50 at 72 h,[1],> 128 µM
same,IC50,[2]; [5],0.0074 µM
same,GI50,HUVEC,17.1 µM
same,"Mouse survival in days, Average",[4]; 3x 10 mg/kg p.o.,9 days
same,"Mouse survival in days, individual mice M1-M3",[4]; 3x 10 mg/kg p.o.,8 days and 11 days and 7 days
same,% activity (reduction of parasitaemia),[4]; 3x 10 mg/kg p.o.,47%
same,% of control,[4]; 3x 10 mg/kg p.o.,53%
same,"Parasitized RBC over 100, Average",[4]; 3x 10 mg/kg p.o.,36
same,"Parasitized RBC over 100, individual mice M1-M3",[4]; 3x 10 mg/kg p.o.,28 and 26 and 53
same,"Mouse survival in days, Average",[4]; 3x 10 mg/kg s.c.,7 days
same,"Mouse survival in days, individual mice M1-M3",[4]; 3x 10 mg/kg s.c.,7 days and 6 days and 8 days
same,% activity (reduction of parasitaemia),[4]; 3x 10 mg/kg s.c.,< 40%
same,% of control,[4]; 3x 10 mg/kg s.c.,83%
same,"Parasitized RBC over 100, Average",[4]; 3x 10 mg/kg s.c.,56
same,"Parasitized RBC over 100, individual mice M1-M3",[4]; 3x 10 mg/kg s.c.,57 and 68 and 42
same,"Mouse survival in days, Average",[4]; 3x 30 mg/kg p.o.,13 days
same,"Mouse survival in days, individual mice M1-M3",[4]; 3x 30 mg/kg p.o.,13 days and 12 days and 14 days
same,% activity (reduction of parasitaemia),[4]; 3x 30 mg/kg p.o.,99.4%
same,% of control,[4]; 3x 30 mg/kg p.o.,0.65%
same,"Parasitized RBC over 100, Average",[4]; 3x 30 mg/kg p.o.,0.44
same,"Parasitized RBC over 100, individual mice M1-M3",[4]; 3x 30 mg/kg p.o.,0.53 and 0.31 and 0.48
same,"Mouse survival in days, Average",[4]; 3x 30 mg/kg s.c.,14 days
same,"Mouse survival in days, individual mice M1-M3",[4]; 3x 30 mg/kg s.c.,14 days
same,% activity (reduction of parasitaemia),[4]; 3x 30 mg/kg s.c.,62%
same,% of control,[4]; 3x 30 mg/kg s.c.,38%
same,"Parasitized RBC over 100, Average",[4]; 3x 30 mg/kg s.c.,26
same,"Parasitized RBC over 100, individual mice M1-M3",[4]; 3x 30 mg/kg s.c.,21 and 24 and 32
same,"Mouse survival in days, Average",[4]; 3x 100 mg/kg p.o.,15 days
same,"Mouse survival in days, individual mice M1-M3",[4]; 3x 100 mg/kg p.o.,15 days and 17 days and 14 days
same,% activity (reduction of parasitaemia),[4]; 3x 100 mg/kg p.o.,99.7%
same,% of control,[4]; 3x 100 mg/kg p.o.,0.30%
same,"Parasitized RBC over 100, Average",[4]; 3x 100 mg/kg p.o.,0.20
same,"Parasitized RBC over 100, individual mice M1-M3",[4]; 3x 100 mg/kg p.o.,0.23 (2×) and 0.14
Oc1ccccc1CNC1CCCCC1 (as salt: perchlorate) [16c],melting point,,152 to 153 °C
C[C@H]1[C@H](OC(=O)CCC(=O)O)O[C@@H]2O[C@@]3(C)CC[C@H]4[C@H](C)CC[C@@H]1[C@@]24OO3 [Artesunate],IC50,P. falciparum NF54; [6],0.0055 ± 0.0008 µM
same,IC50,P. falciparum NF54; [7],0.0057 ± 0.0005 µM
same,IC50,P. falciparum NF54; [8],0.0047 ± 0.0003 µM
COc1ccc2c(c1)CCC1C2CC[C@@]2(C)C1CC[C@@H]2NCc1ccccc1O (stereo partly shown) [2c],GI50,K-562,5.1 µM
same,CC50 at 72 h,[1],42.9 µM
same,IC50,[2]; [5],0.073 µM
same,GI50,HUVEC,10 µM
same,"Mouse survival in days, Average",[4]; 3x 10 mg/kg s.c.,10 days
same,% activity (reduction of parasitaemia),[4]; 3x 10 mg/kg s.c.,47%
same,"Mouse survival in days, Average",[4]; 3x 30 mg/kg s.c.,14 days
same,% activity (reduction of parasitaemia),[4]; 3x 30 mg/kg s.c.,87%
same,"Mouse survival in days, Average",[4]; 3x 100 mg/kg p.o.,16 days
same,% activity (reduction of parasitaemia),[4]; 3x 100 mg/kg p.o.,99%
